Laboratory results from patent publication US10294207B2, “Pyrazole derivatives as TNIK, IKKϵ and TBK1 inhibitor and pharmaceutical composition comprising same” (GREEN CROSS CORPORATION, priority 2015, dated 2019).

Columns and labels:
[1] = target: T1, IKKε (Homo sapiens, UniProt Q14164); assay: IKKε inhibition, ADP-Glo Kinase Assay; type: biochemical; settings: luminometer
T1 construct: purchased Invitrogen PR8031B
T1 sequence (Q14164 1-716): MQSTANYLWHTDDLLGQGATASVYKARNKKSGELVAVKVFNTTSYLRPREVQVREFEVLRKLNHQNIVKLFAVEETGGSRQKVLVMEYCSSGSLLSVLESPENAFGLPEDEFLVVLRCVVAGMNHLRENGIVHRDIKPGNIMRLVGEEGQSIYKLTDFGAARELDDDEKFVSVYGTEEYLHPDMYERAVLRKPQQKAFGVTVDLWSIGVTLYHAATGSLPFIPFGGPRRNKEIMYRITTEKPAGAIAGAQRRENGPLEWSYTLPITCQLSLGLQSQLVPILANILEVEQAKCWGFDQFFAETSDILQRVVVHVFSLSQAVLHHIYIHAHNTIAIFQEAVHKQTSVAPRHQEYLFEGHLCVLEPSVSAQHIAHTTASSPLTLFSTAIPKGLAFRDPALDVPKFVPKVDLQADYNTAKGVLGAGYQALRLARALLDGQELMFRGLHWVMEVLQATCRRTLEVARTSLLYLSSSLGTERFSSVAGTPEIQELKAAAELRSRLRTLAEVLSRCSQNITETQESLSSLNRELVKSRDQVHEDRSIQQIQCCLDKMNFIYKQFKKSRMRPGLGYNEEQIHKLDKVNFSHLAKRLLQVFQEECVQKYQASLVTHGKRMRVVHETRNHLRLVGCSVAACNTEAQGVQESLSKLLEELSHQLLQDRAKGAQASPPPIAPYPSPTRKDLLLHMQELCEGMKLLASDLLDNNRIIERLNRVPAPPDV
Summary of the method: (§1)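 ADP-Glo luminescence reported ADP produced by each kinase, following the kit protocol. Reactions used commercial kinase enzyme systems in buffer of 40 mM Tris (pH 7.5), 20 mM MgCl2 and 0.1 mg/mL BSA.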

[2] = target: T2, TBK1 (Homo sapiens, UniProt Q9UHD2); assay: TBK1 inhibition, ADP-Glo Kinase Assay; type: biochemical; settings: luminometer
T2 construct: purchased Promega V3991
T2 sequence (Q9UHD2 1-729): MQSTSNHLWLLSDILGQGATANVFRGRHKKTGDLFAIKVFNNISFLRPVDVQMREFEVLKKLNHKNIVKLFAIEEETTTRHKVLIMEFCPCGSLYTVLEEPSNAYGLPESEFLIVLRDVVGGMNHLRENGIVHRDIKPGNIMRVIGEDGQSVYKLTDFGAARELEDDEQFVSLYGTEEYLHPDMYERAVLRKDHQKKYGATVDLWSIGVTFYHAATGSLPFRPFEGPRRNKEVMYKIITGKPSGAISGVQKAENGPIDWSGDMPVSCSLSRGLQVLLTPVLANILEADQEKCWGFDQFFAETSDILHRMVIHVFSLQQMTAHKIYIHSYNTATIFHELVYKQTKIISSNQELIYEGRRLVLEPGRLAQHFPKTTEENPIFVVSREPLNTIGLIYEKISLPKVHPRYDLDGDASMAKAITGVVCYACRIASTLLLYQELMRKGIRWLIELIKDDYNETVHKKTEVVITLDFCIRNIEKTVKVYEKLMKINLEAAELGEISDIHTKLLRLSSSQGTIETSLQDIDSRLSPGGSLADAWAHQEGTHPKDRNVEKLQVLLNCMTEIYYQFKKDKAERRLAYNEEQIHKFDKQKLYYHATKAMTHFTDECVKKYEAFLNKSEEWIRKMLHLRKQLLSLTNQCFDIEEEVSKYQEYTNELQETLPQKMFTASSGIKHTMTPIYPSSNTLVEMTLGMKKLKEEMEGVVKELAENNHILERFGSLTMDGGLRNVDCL
Summary of the method: as §1

Compound: CN1CCN(c2ccc(C(=O)Nc3n[nH]c4ccc(C(=O)NC(C)(C)c5ccsc5)cc34)cc2)CC1 [Example 145, 3-(4-(4-methylpiperazin-1-yl)benzamido)-N-(2-(thiophen-3-yl)propan-2-yl)-1H-indazole-5-carboxamide]
- IC50 [1]: 0.033 µM
- IC50 [2]: 0.012 µM

Compound: CCC[C@H](NC(=O)c1ccc2[nH]nc(NC(=O)c3ccc(N4CCN(C)CC4)cc3)c2c1)c1ccccc1 [Example 193, (S)-3-(4-(4-Methylpiperazin-1-yl)benzamido)-N-(1-phenylbutyl)-1H-indazole-5-carboxamide]
- IC50 [1]: 4.47 µM
- IC50 [2]: 0.8 µM

Compound: Cc1cc(N2CCN(C)CC2)ccc1C(=O)Nc1n[nH]c2ccc(C(=O)NCc3cccs3)cc12 [Example 74, 3-(2-Methyl-4-(4-methylpiperazin-1-yl)benzamido)-N-(thiophen-2-ylmethyl)-1H-indazole-5-carboxamide]
- IC50 [1]: 0.079 µM
- IC50 [2]: 0.0044 µM

Compound: O=C(NCc1ccccn1)c1ccc2[nH]nc(NC(=O)c3ccc(F)cc3)c2c1 [Example 28, 3-(4-Fluorobenzamido)-N-(pyridin-2-ylmethyl)-1H-indazole-5-carboxamide2,2,2-trifluoroacetate]
- IC50 [1]: 2.62 µM
- IC50 [2]: 0.73 µM

Compound: O=C(Nc1n[nH]c2ccc(C(=O)NC3(c4cccnc4)CC3)cc12)c1ccc(F)cc1 [Example 217, 3-(4-Fluorobenzamido)-N-(1-(pyridin-3-yl)cyclopropyl)-1H-indazole-5-carboxamide]
- IC50 [1]: 0.65 µM
- IC50 [2]: 0.52 µM

Compound: CN1CCN(c2ccc(C(=O)Nc3n[nH]c4ccc(C(=O)NCc5ccc(F)cc5)cc34)cc2)CC1 [Example 189, N-(4-Fluorobenzyl)-3-(4-(4-methylpiperazin-1-yl)benzamido)-1H-indazole-5-carboxamide]
- IC50 [1]: 0.13 µM
- IC50 [2]: 0.019 µM

Compound: CN1CCN(c2ccc(C(=O)Nc3n[nH]c4ccc(C(=O)NC(C)(C)c5ccccc5)cc34)cc2)CC1 [Example 63, 3-(4-(4-Methylpiperazin-1-yl)benzamido)-N-(2-phenylpropan-2-yl)-1H-indazole-5-carboxamide]
- IC50 [1]: 0.036 µM
- IC50 [2]: 0.0094 µM

Compound: O=C(Nc1n[nH]c2ccc(C(=O)NC3(c4cccs4)CC3)cc12)c1ccc(N2CCOCC2)cc1 [Example 48, 3-(4-Morpholinobenzamido)-N-(1-(thiophen-2-yl)cyclopropyl)-1H-indazole-5-carboxamide]
- IC50 [1]: 0.0032 µM
- IC50 [2]: 0.0011 µM

Compound: CC(C)CCNC(=O)c1ccc2[nH]nc(NC(=O)c3ccc(N4CCOCC4)cc3)c2c1 [Example 116, N-Isopentyl-3-(4-morpholinobenzamido)-1H-indazole-5-carboxamide 2,2,2-trifluoroacetate]
- IC50 [1]: 3.12 µM
- IC50 [2]: 0.48 µM

Compound: O=C(NCc1ncon1)c1ccc2[nH]nc(NC(=O)c3ccc(N4CCOCC4)cc3)c2c1 [Example 105, N-((1,2,4-Oxadiazol-3-yl)methyl)-3-(4-morpholinobenzamido)-1H-indazole-5-carboxamide 2,2,2-trifluoroacetate]
- IC50 [1]: 1.14 µM
- IC50 [2]: 0.1 µM

Compound: CC(C)CCNC(=O)c1ccc2[nH]nc(NC(=O)c3ccc(F)cc3)c2c1 [Example 25, 3-(4-Fluorobenzamido)-N-isopentyl-1H-indazole-5-carboxamide]
- IC50 [1]: 5.87 µM
- IC50 [2]: 0.42 µM

Compound: COc1ccc(C(=O)Nc2n[nH]c3ccc(C(=O)NCc4ccco4)cc23)cc1 [Example 2, N-(Furan-2-yl-methyl)-3-(4-methoxybenzamido)-1H-indazole-5-carboxamide]
- IC50 [1]: 0.13 µM
- IC50 [2]: 0.037 µM

Compound: CCC(NCc1ccc2[nH]nc(NC(=O)c3ccc(N4CCN(C)CC4)cc3)c2c1)c1cccs1 (stereo not drawn) [Example 124]
- IC50 [1]: > 10 µM
- IC50 [2]: 2.44 µM

Compound: CC(NC(=O)c1ccc2[nH]nc(NC(=O)c3ccc(F)cc3)c2c1)c1ccncc1 (stereo not drawn) [Example 214, 3-(4-Fluorobenzamido)-N-(1-(pyridin-4-yl)ethyl)-1H-indazole-5-carboxamide]
- IC50 [1]: 0.59 µM
- IC50 [2]: 0.27 µM

Compound: O=C(NCc1ccccn1)c1ccc2[nH]nc(NC(=O)c3ccc(N4CCOCC4)cc3)c2c1 [Example 86, 3-(4-Morpholinobenzamido)-N-(pyridin-2-ylmethyl)-1H-indazole-5-carboxamide]
- IC50 [1]: 0.45 µM
- IC50 [2]: 0.089 µM

Compound: O=C(NCc1cccs1)c1ccc2[nH]nc(NC(=O)c3ccc(-n4ccnc4)cc3)c2c1 [Example 212, 3-(4-(1H-Imidazol-1-yl)benzamido)-N-(thiophen-2-ylmethyl)-1H-indazole-5-carboxamide]
- IC50 [1]: 0.36 µM
- IC50 [2]: 0.078 µM

Compound: CC(NC(=O)c1ccc2[nH]nc(NC(=O)c3ccc(N4CCN(C)CC4)cc3)c2c1)c1ccsc1 (stereo not drawn) [Example 80, 3-(4-(4-Methylpiperazin-1-yl)benzamido)-N-(1-(thiophen-3-yl)ethyl)-1H-indazole-5-carboxamide]
- IC50 [1]: 0.0074 µM
- IC50 [2]: 0.0025 µM

Compound: C[C@H]1CN(c2ccc(C(=O)Nc3n[nH]c4ccc(C(=O)NC(C)(C)c5cccs5)cc34)cc2)CCN1 [Example 137, (S)-3-(4-(3-Methylpiperazin-1-yl)benzamido)-N-(2-(thiophen-2-yl)propan-2-yl)-1H-indazole-5-carboxamide]
- IC50 [1]: 0.032 µM
- IC50 [2]: 0.0049 µM

Compound: CN1CCN(c2ccc(C(=O)Nc3n[nH]c4ccc(C(=O)NCC5CCCCC5)cc34)cc2)CC1 [Example 87, N-(Cyclohexylmethyl)-3-(4-(4-methylpiperazin-1-yl)benzamido)-1H-indazole-5-carboxamide]
- IC50 [1]: 0.072 µM
- IC50 [2]: 0.018 µM

Compound: C[C@@H](NC(=O)c1ccc2[nH]nc(NC(=O)c3ccc(N4CCN(C)CC4)cc3)c2c1)c1ccccc1 [Example 175, (R)-3-(4-(4-Methylpiperazin-1-yl)benzamido)-N-(1-phenylethyl)-1H-indazole-5-carboxamide]
- IC50 [1]: 0.0076 µM
- IC50 [2]: 0.0024 µM

Compound: O=C(NCc1ccc(C(F)(F)F)nc1)c1ccc2[nH]nc(NC(=O)c3ccc(N4CCOCC4)cc3)c2c1 [Example 71, 3-(4-Morpholinobenzamido)-N-((6-(trifluoromethyl)pyridin-3-yl)methyl)-1H-indazole-5-carboxamide]
- IC50 [1]: > 10 µM
- IC50 [2]: 0.44 µM

Compound: CC[C@H](NC(=O)c1ccc2[nH]nc(NC(=O)c3ccc(N4CCN(C)CC4)cc3)c2c1)c1cccs1 [Example 111, (S)-3-(4-(4-Methylpiperazin-1-yl)benzamido)-N-(1-(thiophen-2-yl)propyl)-1H-indazole-5-carboxamide]
- IC50 [1]: 0.074 µM
- IC50 [2]: 0.014 µM

Compound: Cc1cc(N2CCOCC2)ccc1C(=O)Nc1n[nH]c2ccc(C(=O)NCc3cccs3)cc12 [Example 73, 3-(2-Methyl-4-morpholinobenzamido)-N-(thiophen-2-ylmethyl)-1H-indazole-5-carboxamide]
- IC50 [1]: 0.044 µM
- IC50 [2]: 0.004 µM

Compound: CN1CCN(c2ccc(C(=O)Nc3n[nH]c4ccc(C(=O)NCc5nccs5)cc34)cc2)CC1 [Example 103, 3-(4-(4-Methylpiperazin-1-yl)benzamido)-N-(thiazol-2-ylmethyl)-1H-indazole-5-carboxamide 2,2,2-trifluoroacetate]
- IC50 [1]: 0.44 µM
- IC50 [2]: 0.02 µM

Compound: Cc1cc(C(=O)Nc2n[nH]c3ccc(C(=O)NCc4cccs4)cc23)ccc1N1CCN(C)CC1 [Example 79, 3-(3-Methyl-4-(4-methylpiperazin-1-yl)benzamido)-N-(thiophen-2-ylmethyl)-1H-indazole-5-carboxamide]
- IC50 [1]: 0.22 µM
- IC50 [2]: 0.015 µM

Compound: CC(NC(=O)c1ccc2[nH]nc(NC(=O)c3ccc(N4CCN(C)CC4)cc3)c2c1)c1nccs1 (stereo not drawn) [Example 82, 3-(4-(4-Methylpiperazin-1-yl)benzamido)-N-(1-(thiazol-2-yl)ethyl)-1H-indazole-5-carboxamide]
- IC50 [1]: 0.074 µM
- IC50 [2]: 0.014 µM

Compound: Cc1ccc(CNC(=O)c2ccc3[nH]nc(NC(=O)c4ccc(N5CCOCC5)cc4)c3c2)s1 [Example 60, N-((5-Methylthiophen-2-yl)methyl)-3-(4-morpholinobenzamido)-1H-indazole-5-carboxamide]
- IC50 [1]: 0.28 µM
- IC50 [2]: 0.034 µM
